We go through seven compounds from ChEMBL document CHEMBL1201862, “PubChem BioAssay data set” (2004).

Test [1] addresses Heat shock protein HSP 90-alpha (Homo sapiens, UniProt P07900). In words: Luminescence-based dose response biochemical high throughput screening assay for inhibitors of the Heat Shock Protein 90 (HSP90). [Related pubchem assays: 1831 (Summary AID.), 1846 (Confirmation screen.), 1789 (Primary screen.)].
Test [2] has as its target Glucose-6-phosphate 1-dehydrogenase (Homo sapiens, UniProt P11413). The experiment in a line: inhibition of Homo sapiens G6PD, dose series – biochemical, fluorescence, selectivity assay for P. falciparum G6PD inhibitor project, dose response (AID 504792). The test is classed as functional.
Test [3] has as its target T1, Protein skinhead-1 (Caenorhabditis elegans, UniProt P34707).
T1 sequence (P34707 whole entry): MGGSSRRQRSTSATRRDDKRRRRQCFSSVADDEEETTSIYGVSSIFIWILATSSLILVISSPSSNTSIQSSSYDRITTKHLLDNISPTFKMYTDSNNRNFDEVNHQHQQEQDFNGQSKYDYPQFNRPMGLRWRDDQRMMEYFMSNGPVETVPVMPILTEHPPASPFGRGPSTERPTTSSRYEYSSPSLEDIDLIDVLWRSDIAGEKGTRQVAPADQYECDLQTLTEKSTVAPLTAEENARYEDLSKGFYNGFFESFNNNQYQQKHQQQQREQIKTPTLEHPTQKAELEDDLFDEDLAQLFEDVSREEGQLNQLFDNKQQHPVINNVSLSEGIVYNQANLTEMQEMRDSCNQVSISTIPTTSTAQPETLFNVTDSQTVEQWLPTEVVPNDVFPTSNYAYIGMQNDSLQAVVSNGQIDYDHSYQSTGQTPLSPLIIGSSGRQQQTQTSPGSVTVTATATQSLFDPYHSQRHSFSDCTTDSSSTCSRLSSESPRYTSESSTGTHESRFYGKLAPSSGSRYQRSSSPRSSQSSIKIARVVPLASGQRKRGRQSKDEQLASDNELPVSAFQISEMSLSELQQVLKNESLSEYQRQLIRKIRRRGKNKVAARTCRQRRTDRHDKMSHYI
It counts as functional.

The target in test [4] is Mitogen-activated protein kinase 10 (Homo sapiens, UniProt P53779). The experiment in a line: Dose response biochemical screening assay for inhibitors of c-Jun N-Terminal Kinase 3 (JNK3). [Related pubchem assays: 746 ].
Chain of Mitogen-activated protein kinase 10 (P53779 whole entry): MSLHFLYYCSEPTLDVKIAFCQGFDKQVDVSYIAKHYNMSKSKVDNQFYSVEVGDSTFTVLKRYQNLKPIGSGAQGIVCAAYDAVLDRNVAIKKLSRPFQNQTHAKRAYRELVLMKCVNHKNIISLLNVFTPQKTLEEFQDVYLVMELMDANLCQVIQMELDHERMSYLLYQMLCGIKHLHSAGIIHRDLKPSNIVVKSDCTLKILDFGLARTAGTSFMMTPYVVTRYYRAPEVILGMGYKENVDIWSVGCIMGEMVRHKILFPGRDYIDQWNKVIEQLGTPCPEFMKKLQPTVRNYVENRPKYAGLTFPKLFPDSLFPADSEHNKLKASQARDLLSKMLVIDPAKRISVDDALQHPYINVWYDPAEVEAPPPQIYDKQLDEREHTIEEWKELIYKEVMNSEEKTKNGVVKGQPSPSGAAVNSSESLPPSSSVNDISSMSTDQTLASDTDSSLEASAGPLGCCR
Test [5] relates to HEK293. In words: cells. The following applies: Homo sapiens.
The subject of test [6] is HEK293. In words: cells. Particulars: Homo sapiens. The source holds these as a separate data set.
Test [7] addresses NADPH oxidase 1 (Homo sapiens, UniProt Q9Y5S8). The experiment in a line: Late-stage luminescence-based cell-based dose response assay to identify inhibitors of NADPH oxidase 1 (NOX1): Synthesized analogs 2. It counts as functional.
In test [8] the target is Aryl hydrocarbon receptor (Homo sapiens, UniProt P35869). The experiment in a line: Luminescence-based cell-based high throughput dose response assay for activators of the Aryl Hydrocarbon Receptor (AHR). [Related pubchem assays: 2796 (Primary screen (AHR activators in singlicate)), 2845 (Confirmation screen (AHR activators in triplicate)), 434939 (Counterscreen (PXR activators in triplicate)), 2804 (Summary (AHR activators))]. It counts as ADME.
Chain of Aryl hydrocarbon receptor (P35869 whole entry): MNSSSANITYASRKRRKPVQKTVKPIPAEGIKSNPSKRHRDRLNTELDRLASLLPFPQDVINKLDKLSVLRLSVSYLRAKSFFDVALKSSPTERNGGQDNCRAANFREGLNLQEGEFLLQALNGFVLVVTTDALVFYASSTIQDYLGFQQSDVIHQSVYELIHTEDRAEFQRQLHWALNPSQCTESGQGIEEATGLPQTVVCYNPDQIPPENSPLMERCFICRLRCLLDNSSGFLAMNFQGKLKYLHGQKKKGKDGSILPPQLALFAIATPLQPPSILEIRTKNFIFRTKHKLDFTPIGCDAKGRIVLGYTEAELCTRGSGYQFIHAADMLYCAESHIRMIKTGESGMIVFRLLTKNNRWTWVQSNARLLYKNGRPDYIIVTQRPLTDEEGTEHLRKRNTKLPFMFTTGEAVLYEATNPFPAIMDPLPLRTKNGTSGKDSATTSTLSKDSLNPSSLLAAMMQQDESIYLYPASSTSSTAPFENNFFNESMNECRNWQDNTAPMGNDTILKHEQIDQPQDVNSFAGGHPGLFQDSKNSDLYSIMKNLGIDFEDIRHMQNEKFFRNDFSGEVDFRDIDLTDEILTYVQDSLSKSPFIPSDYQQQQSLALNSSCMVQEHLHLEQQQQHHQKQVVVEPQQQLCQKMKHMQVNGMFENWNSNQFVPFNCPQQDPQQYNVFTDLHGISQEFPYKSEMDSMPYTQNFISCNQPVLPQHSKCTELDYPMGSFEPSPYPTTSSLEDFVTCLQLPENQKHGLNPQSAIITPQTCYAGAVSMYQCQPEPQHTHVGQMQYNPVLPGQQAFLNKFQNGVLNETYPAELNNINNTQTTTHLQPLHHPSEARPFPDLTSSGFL

In test [9] the target is Genome polyprotein (Hepatitis C virus, UniProt Q2Q167). The experiment in a line: disruption of hepatitis C core self-association – biochemical, TR-FRET, dose response (AID 2159).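 Also: blocks dimerization of HCV core protein measured by TR-FRET between tagged core106 pairs.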 On the set-up: species or system Hepacivirus hominis.
Chain of Genome polyprotein (Q2Q167 whole entry): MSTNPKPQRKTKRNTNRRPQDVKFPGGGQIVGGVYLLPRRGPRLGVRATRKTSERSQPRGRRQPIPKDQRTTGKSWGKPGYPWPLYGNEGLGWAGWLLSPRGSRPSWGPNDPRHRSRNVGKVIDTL
Test [10] in a line: A cytotoxicity screen of small molecule inhibitors of the PhoP region in Salmonella typhi identified in the primary screen. [Related pubchem assays: 1850, 1864, 1985 ]. It counts as functional.
A short description of test [11]: M. tuberculosis growth inhibition, HTS (AID 449762). The test is classed as functional.
In test [12] the test system is HeLa. The experiment in a line: ATP-based viability loss in HeLa cells – cell-based, CellTiter-Glo luminescence, cherry-pick samples, cytotoxicity control for MITF activator project, dose response (AID 540259). It counts as functional. Particulars: Homo sapiens.
For test [13], the target named is Glutathione-S-transferase (Schistosoma japonicum, UniProt Q26513). In words: GST-antibody interaction or FRET quenching – biochemical, TR-FRET, artefact control for Vif-APOBEC3G degradation inhibitor project, dose response (AID 1117362). The test is classed as functional.
Chain of Glutathione-S-transferase (Q26513 whole entry): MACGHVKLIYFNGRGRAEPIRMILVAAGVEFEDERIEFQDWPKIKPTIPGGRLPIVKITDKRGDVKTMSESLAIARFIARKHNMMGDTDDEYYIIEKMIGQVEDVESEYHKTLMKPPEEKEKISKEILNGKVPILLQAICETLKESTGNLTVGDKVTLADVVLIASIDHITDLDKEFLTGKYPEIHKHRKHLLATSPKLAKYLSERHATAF
Test [14] has as its target ELAV-like protein 1 (Homo sapiens, UniProt Q15717). In words: Identify HuR specific inhibitors. It counts as functional.
Test [15] concerns the target T2, Carboxy-terminal domain RNA polymerase II polypeptide A small phosphatase 1 (Homo sapiens, UniProt Q9GZU7).
T2 sequence (Q9GZU7 whole entry): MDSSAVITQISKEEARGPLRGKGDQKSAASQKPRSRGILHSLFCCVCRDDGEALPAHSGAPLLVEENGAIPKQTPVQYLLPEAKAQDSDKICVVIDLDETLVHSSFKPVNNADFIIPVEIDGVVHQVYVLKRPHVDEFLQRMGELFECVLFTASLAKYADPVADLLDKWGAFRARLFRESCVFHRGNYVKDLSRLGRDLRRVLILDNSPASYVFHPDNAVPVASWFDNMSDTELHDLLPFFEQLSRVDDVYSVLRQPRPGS
In words: CTDSP1 inhibitors, concentration-response, biochemical, absorbance readout, ultra-high-throughput screen actives (AID 540297). The test is classed as functional.

The target in test [16] is T3, Small ubiquitin-related modifier 1 (Homo sapiens, UniProt P63165). The experiment in a line: SUMO1 protein-protein binding blockers, potency – biochemical, FRET, dose response (AID 624383). The test is classed as functional. Particulars: read-out: IC50_Mean.
T3 sequence (P63165 whole entry): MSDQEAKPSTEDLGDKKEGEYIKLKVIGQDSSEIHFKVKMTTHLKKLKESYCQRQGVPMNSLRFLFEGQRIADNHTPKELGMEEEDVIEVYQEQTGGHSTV
Test [17] has as its target T3, Small ubiquitin-related modifier 1. In words: SUMO1 protein interaction blockers, potency – biochemical, fluorescence polarization, uHTS hits, dose response (AID 624382). The test is classed as functional. Particulars: read-out: IC50_Mean.

Active and inactive are the calls of the source.

Chain of ELAV-like protein 1 (Q15717 whole entry, the tested form may be a part): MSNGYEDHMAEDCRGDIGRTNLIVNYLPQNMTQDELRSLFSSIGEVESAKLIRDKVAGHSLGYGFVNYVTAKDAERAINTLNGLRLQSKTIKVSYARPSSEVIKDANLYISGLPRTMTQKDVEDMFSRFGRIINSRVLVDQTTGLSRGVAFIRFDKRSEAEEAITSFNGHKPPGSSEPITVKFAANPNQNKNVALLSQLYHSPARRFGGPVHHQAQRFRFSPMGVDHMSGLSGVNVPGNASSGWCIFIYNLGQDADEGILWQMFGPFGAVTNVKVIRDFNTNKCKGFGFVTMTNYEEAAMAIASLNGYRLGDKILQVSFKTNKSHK
Chain of NADPH oxidase 1 (Q9Y5S8 whole entry): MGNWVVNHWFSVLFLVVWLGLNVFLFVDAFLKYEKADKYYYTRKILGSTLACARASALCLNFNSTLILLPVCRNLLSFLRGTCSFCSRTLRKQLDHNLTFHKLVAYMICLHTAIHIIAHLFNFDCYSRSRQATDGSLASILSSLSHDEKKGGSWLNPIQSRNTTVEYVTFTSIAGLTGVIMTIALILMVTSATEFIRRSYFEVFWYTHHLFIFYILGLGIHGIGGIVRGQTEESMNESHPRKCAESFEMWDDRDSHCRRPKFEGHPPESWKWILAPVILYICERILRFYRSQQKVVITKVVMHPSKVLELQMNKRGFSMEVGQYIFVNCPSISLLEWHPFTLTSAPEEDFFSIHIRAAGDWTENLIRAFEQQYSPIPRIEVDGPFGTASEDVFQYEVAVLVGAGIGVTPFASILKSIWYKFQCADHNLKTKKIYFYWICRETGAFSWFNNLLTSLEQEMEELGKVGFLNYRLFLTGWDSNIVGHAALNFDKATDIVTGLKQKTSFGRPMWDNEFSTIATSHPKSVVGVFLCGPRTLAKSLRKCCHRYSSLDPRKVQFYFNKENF
Chain of Glucose-6-phosphate 1-dehydrogenase (P11413 whole entry): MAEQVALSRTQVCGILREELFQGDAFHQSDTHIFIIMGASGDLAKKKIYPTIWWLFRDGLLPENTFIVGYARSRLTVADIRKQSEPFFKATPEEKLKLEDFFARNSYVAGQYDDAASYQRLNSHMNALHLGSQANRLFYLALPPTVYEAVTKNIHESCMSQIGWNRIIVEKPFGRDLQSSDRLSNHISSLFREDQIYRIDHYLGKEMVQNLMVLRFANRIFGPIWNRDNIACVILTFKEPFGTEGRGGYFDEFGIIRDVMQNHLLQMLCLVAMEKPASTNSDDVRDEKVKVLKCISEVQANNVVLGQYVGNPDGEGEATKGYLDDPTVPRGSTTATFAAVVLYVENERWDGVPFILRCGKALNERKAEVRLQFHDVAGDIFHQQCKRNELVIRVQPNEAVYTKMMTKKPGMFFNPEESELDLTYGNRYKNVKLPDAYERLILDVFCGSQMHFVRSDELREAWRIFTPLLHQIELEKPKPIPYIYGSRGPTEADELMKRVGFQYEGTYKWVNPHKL

Take `[O-]/[N+](=C\c1ccco1)c1ccc(Cl)cc1`: the values for the IC50 in test [1], in [2] and in test [3] were 4.31 µM (active), 27.6 µM (inactive) and > 100 µM (inactive), respectively.
For the compound `COc1cc(C2NC(=O)NC(C)=C2C(=O)OCc2ccccc2)ccc1O` (configuration not stated), the IC50 in [4] is on record as > 93.1 µM (not active). Further, the EC50 in [5] and in [6] was > 59.6 µM (inactive) in each case.
`CN1c2ccccc2Sc2cc(N=[N+]=[N-])ccc21`: in [7], the IC50 is 0.73 µM (active).
With `CCCCc1cc2c(c(NC(C)=O)n1)c(=O)oc1ccccc12`, in test [8], the EC50 is 3.25 µM (active).
Take `COc1ccc(S(=O)(=O)N2CCOCC2)cc1NC(=O)c1cccc(-n2cccc2)c1`: the IC50 in test [9] is given as > 49.8 µM (not active).
Regarding `Nc1ccc(N=Nc2ccccc2)c(N)n1`, the 50% effective concentration (EC50) in test [10] was > 50 µM (active). Besides, the IC50 in test [11] was > 100 µM (active). The AC50 in [12] was 36 µM (active).
For the compound `CCOC(=O)C(=O)Cc1cccnn1`, the IC50 in test [13] was > 100 µM (active); in test [14], 4.6 µM (inactive); in [15] it was 4.08 µM (active); in test [16], 6.34 µM (active); in test [17], > 66.6 µM (inactive).
